Source: a melting point compilation (Tetko et al.)

| melting point [°C] | SMILES |
| --- | --- |
| 113 to 115 | Cc1c(I)cccc1C(=O)O |
| 189 to 191 | COC(=O)c1nc2ccccc2[nH]1 |
| 154 to 156 | CCN(CC)c1ccc(C(=O)O)cn1 |
| 175 to 177 | O=C(O)c1cccc(-c2ncon2)c1 |
| 123 to 125 | CC(C(=O)O)N1C(=O)C2CC=CCC2C1=O (centres undefined) |
| 87 to 89 | CS(=O)(=O)c1cccc(C(=O)c2cc(F)ccc2F)c1 |
| 170 to 172 | O=[N+]([O-])c1c(Cl)nc2ccccn12 |
| 61 to 63 | CS(=O)(=O)CCC(Cc1cccc(Br)c1)C(=O)O (centres undefined) |
| 139 to 141 | Cc1cc(S(N)(=O)=O)c(C)s1 |
| 152 to 154 | Nc1nnc(-c2c(F)cccc2Cl)o1 |
| 254 to 256 | O=C(O)c1cnn(-c2ccc(Br)cc2)c1 |
| 219 to 221 | Cn1cc(S(=O)(=O)N2CCCC2)cc1C(=O)O |
| 87 to 89 | CN(C)S(=O)(=O)c1ccccc1CNC(=O)CCl |
| 107 to 109 | COC(=O)c1sc(-c2cccc(Br)c2)cc1N |
| 86 to 88 | COc1cc(Br)cc([N+](=O)[O-])c1 |
| 49 to 51 | CC(C)(Cc1ccccc1)C(=O)O |
| 181 to 183 | CS(=O)Cc1cccc(C(=O)O)c1 (centres undefined) |
| 273 to 275 | NC(=O)COc1ccc(C(=O)O)cc1 |
| 162 to 164 | O=C(O)c1ccc([N+](=O)[O-])[nH]1 |
| 57 to 59 | Cc1cnc2ccccc2c1Cl |
| 154 to 156 | COc1ccc(C=C(CC(=O)O)c2nc3ccccc3s2)cc1 |

| melting point [°C] | SMILES |
| --- | --- |
| 106 to 108 | CNc1ccc(Cl)cc1[N+](=O)[O-] |
| 51 to 53 | Cc1cccc(C)c1OCCC(=O)O |
| 61 to 63 | CC(=O)c1cnn(Cc2ccccc2)c1 |
| 103 to 105 | CCNC(=O)c1ccc(F)cc1Br |
| 168 to 170 | CC(C)N(C)S(=O)(=O)c1cccc(C(=O)O)c1 |
| 176 to 178 | COc1cc2c(cc1[N+](=O)[O-])C(=O)CCC2 |
| 36 to 40 | C=CCn1c(C)cc(C(=O)CCl)c1C |
| 178 to 180 | CCCCCC(=O)Nc1cc(OC)c(OC)cc1C(=O)O |
| 102 to 104 | CCOc1ccc([N+](=O)[O-])cc1CO |
| 110 to 112 | CNc1cc(F)ccc1[N+](=O)[O-] |
| 222 to 224 | O=C(O)c1cc(Cl)nc(N2CCOCC2)c1 |
| 157 to 159 | O=C(O)CCn1cnc2cc(F)c(F)cc21 |
| 163 to 165 | COC(=O)c1cc(Cl)cc([N+](=O)[O-])c1O |
| 97 to 99 | COC(=O)c1coc(C(=O)CCl)c1 |
| 199 to 201 | COc1cc(OC)c(NC(=O)c2cc3ccccc3cc2O)cc1Cl |
| 73 to 75 | CN(CC#N)C(=O)c1ccccc1 |
| 184 to 186 | O=C(O)c1csc(-c2ccccc2)c1 |
| 131 to 133 | COc1ccc([N+](=O)[O-])cc1NC(=O)C(C)Cl (centres undefined) |
| 149 to 151 | COC(=O)c1cc(C(=O)OC)[nH]n1 |
| 47 to 49 | Cc1ccccc1C(C)CC(=O)O (centres undefined) |
| 48 to 50 | CN(C)C=C(Br)C=O |

| melting point [°C] | SMILES |
| --- | --- |
| 68 to 70 | CC(C)=C(C)C(=O)O |
| 107 to 109 | O=C1NCc2ccccc2N1CCO |
| 180 to 182 | C=CCNS(=O)(=O)c1cccc(C(=O)O)c1 |
| 182 to 184 | N#Cc1cccc(C2(C(=O)O)CC2)c1 |
| 249 to 251 | NC(=O)c1cncc(O)c1 |
| 228 to 230 | O=C(O)c1cc(Cl)c2ccccc2c1O |
| 78 to 80 | CC(C)(C)c1ccc(C(=O)CC#N)cc1 |
| 156 to 158 | O=C(O)CN1CCOc2ccc(Cl)cc21 |
| 264 to 266 | NC(=O)c1cc2ccccc2c(Cl)n1 |
| 102 to 104 | Cc1ccc(NC(=O)C(C)Cl)cc1F (centres undefined) |
| 142 to 144 | CC1Oc2ccccc2NC1=O (centres undefined) |
| 55 to 57 | O=C(CCl)Nc1ccc(SC(F)F)cc1 |
| 75 to 77 | CCOC(=O)c1nc(Br)sc1NC |
| 200 to 202 | CCNC(=O)N1CCc2c(cccc2-n2nnc(C(=O)O)c2C)C1 |
| 179 to 181 | CNC(=O)c1cc(Oc2cccc(O)c2C)ccn1 |
| 219 to 221 | Cc1ccc(-n2nc(C(=O)O)c3c2CCC3)c(F)c1 |
| 170 to 172 | CN(C)C(C(=O)O)c1cc(Cl)cc(Cl)c1 (centres undefined) |
| 128 to 130 | COc1ccc(C(=O)Nc2cccc(C=O)c2)cc1 |
| 122 to 124 | Cc1c(C(=O)O)cnn1-c1cccc(C(F)(F)F)c1 |

The next lines start with the molecule.

| SMILES | melting point [°C] |
| --- | --- |
| OC(CC1COCCN1)c1cccs1 (centres undefined) | 109 to 111 |
| CC(C)(C)c1noc(C(N2CCOCC2)N2CCOCC2)n1 | 80 to 82 |
| Nc1ccc2oc(-c3ccccc3F)nc2c1 | 166 to 168 |
| O=C(CN1CCNCC1)Nc1ccc(F)cc1 | 72 to 81 |
| Nc1nnc(C2COc3ccccc3O2)o1 (centres undefined) | 210 to 212 |
| COc1nc(C)ccc1C#N | 84 to 86 |
| Cc1cc2nnc(S)n2c(C)n1 | 250 to 252 |
| Cc1ccnc(NC2CCCCC2)c1 | 75 to 77 |
| CCCCCc1sc(N)c(C(N)=O)c1C | 129 to 131 |
| CCc1c(O)nc(S)n(-c2cccc(OC)c2)c1=O | 141 to 143 |
| O=C(NC1CC1)C1CCNCC1 | 135 to 137 |
| S=c1[nH][nH]c(=Nc2cccc(Br)c2)s1 | 225 to 227 |
| CC(C)CN1C(=O)CN=C1S | < 17 |
| CS(=O)(=O)NC1CCC(O)CC1 (centres undefined) | 149 to 151 |
| NC(=O)C(F)(F)c1ccccc1 | 116 to 118 |
| Nc1ccc(N2CCCCC2)c(Cl)c1 | 53 to 55 |
| NS(=O)(=O)c1ccc(Br)c([N+](=O)[O-])c1 | 185 to 187 |
| Oc1cccc(CNC2CCC(O)CC2)c1 (centres undefined) | 180 to 182 |
| NC(=S)C1CN2CCCC2CO1 (centres undefined) | 146 to 148 |
| O=C(NC1CCN(Cc2ccccc2)CC1)c1cccc(F)c1 | 143 to 145 |
| Cc1ccc(NN)nn1 | 107 to 109 |
| Cc1cccc2[nH]c(CC#N)nc12 | 158 to 160 |

| SMILES | melting point [°C] |
| --- | --- |
| Nc1ncc(-c2ccc(Br)cc2)[nH]1 | 194 to 196 |
| O=C1OC(CBr)CN1c1ccccc1 (centres undefined) | 102 to 104 |
| O=S(=O)(c1cccc(-c2nnc(S)n2-c2ccc(OC(F)(F)F)cc2)c1)N1CCOCC1 | 247 to 249 |
| CN1CCN(C(=O)c2ccc(Br)cc2)CC1 | 81 to 83 |
| N#Cc1ccc(F)c(F)c1N | 92 to 94 |
| Cc1cnc2c(c1)NC(=O)CO2 | 259 to 261 |
| NCc1ccnc(N)c1 | 92 to 94 |
| N#CCC(=O)CCc1ccccc1 | 69 to 71 |
| Nc1cccc2ccncc12 | 169 to 171 |
| NNC(=O)Nc1ccc(Br)cc1 | 236 to 238 |
| CCCCn1c(N)c(NC2CCCC2)c(=O)[nH]c1=O | 250 to 252 |
| CCn1c2ccccc2c2cc(N=C=S)ccc21 | 118 to 120 |
| N#CNC1=NCCCCC1 | 79 to 81 |
| O=C(CN1CCNCC1)NC1CC1 | 22 to 24 |
| Brc1nn2cc(-c3ccccc3)nc2s1 | 186 to 188 |
| CCC(=O)NCC(=O)O | 121 to 123 |
| CN1CC(=O)N(c2cccc(N)c2)C1=O | 131 to 133 |
| C=CC(=O)NC(=O)NC | 174 to 176 |
| O=Cc1cnn(-c2ccc(Br)cc2)c1 | 124 to 126 |
| NCCCCc1cn[nH]c1 | 72 to 74 |
| Fc1cc2cccnc2cc1F | 109 to 111 |
